Measured values: US20190015505A1, “Method of Mediating Cardiovascular Hypertrophy and Perivascular Fibrosis Induced by Angiotensin II” (UNIVERSITY OF MACAU, priority 2017, published 2019)

Key:
[1] = tested on: VSMCs stimulated with AngII; experiment: Pro-fibrotic response: extracellular collagen content (Sirius Red kit) in VSMCs stimulated with AngII; format: cell-based; conditions: rat VSMCs, 100 nM AngII 48 hours; JG26 1 ̂mol/L, erlotinib 1 ̂mol/L, PBA 10 mmol/L pretreated 30 min; adenovirus 100 m.o.i.
Experimental: (§1) VSMCs were prepared from thoracic aortas of male Sprague-Dawley rats by the explant method as described previously^21. VSMCs were subcultured in DMEM containing 10% fetal bovine serum, penicillin and streptomycin. Cells from passage 3 to 10 at 80˜90% confluence were made quiescent by incubation with serum-free medium for 2-3 days.
To evaluate pro-fibrotic response, serum-starved VSMCs were stimulated with 100 nM AngII for 48 hours and extracellular cellular collagen content was quantified by Sirius Red collagen quantification kit (Chondrex) according to the manufacture's protocol. Recombinant adenoviral vector encoding rat ADAM17 siRNA was created and specificity and efficiency has been reported^11. VSMCs were infected with 100 m.o.i. adenovirus prior to the AngII stimulation as reported previously^11. ADAM17 selective inhibitor compound #21 (JG26)^8 was generated as reported. VSMCs were pretreated
with 1 ̂mol/L JG26 or vehicle (0.1% DMSO in final) for 30 min prior to the AngII stimulation. 4-phenylbutyrate (PBA) was obtained from Scandinavian Formulas and solubilized in DMEM. VSMCs were pretreated with 10 mmol/L PBA for 30 min.
Erlotinib (OSI Pharmaceuticals) was obtained from Genentech. VSMCs were pretreated with 1 ̂mol/L erlotinib for 30 min.
To test for the role of ADAM17 in AngII-induced vascular fibrosis, extracellular collagen content was evaluated in VSMCs stimulated with AngII. Adenovirus encoding ADAM17 siRNA^11 attenuated the AngII-induced enhancement in collagen content (FIG. 4A and 4B). Treatment of VSMCs with ADAM17 antibody A9B8, a highly-selective ADAM17 inhibitor JG26/compound 21^22, an EGFR kinase inhibitor erlotinib or a chemical ER chaperone PBA also attenuated AngII-induced enhancement in collagen content (FIG. 4C). As shown with the ADAM17 siRNA^11, A9B8 as well as JG26 inhibited AngII-induced EGFR transactivation assessed with an auto-phosphorylation site antibody (FIG. 4D).

EGFR = experiment: AngII-induced EGFR transactivation in VSMCs, immunoblotting with auto-phosphorylation site antibody; format: cell-based; conditions: rat VSMCs, 100 nM AngII, auto-phosphorylation site antibody (Tyr1068)
Experimental: as §1
Immunoblotting (IB) was performed as previously described^21. Quiescent VSMCs grown on 6-well plates were stimulated with 100 nM AngII (Sigma) for specified durations. The reaction was terminated by the replacement of medium with 100 ̂L of 1xSDS lysis buffer. 40 ̂L of the cell lysates were subjected to SDS-PAGE gel electrophoresis and electrophoretically transferred to a nitrocellulose membrane. The membranes were then exposed to primary antibodies overnight at 4° C. After incubation with the peroxidase linked secondary antibody for 1 h at room temperature, immunoreactive proteins were visualized using a chemiluminescence reaction kit. […]
To test for the role of ADAM17 in AngII-induced vascular fibrosis, extracellular collagen content was evaluated in VSMCs stimulated with AngII. […] As shown with the ADAM17 siRNA^11, A9B8 as well as JG26 inhibited AngII-induced EGFR transactivation assessed with an auto-phosphorylation site antibody (FIG. 4D).

Molecule | AngII-induced enhancement in collagen content [1] | AngII-induced EGFR transactivation (EGFR)
4-phenylbutyrate [PBA] | attenuated | 
NC(=O)NCCC[C@@H](NS(=O)(=O)c1ccc(OCc2cc(Br)cc(Br)c2)cc1)C(=O)NO [JG26, reference compound] | attenuated | inhibited
C#Cc1cccc(Nc2ncnc3cc(OCCOC)c(OCCOC)cc23)c1 [erlotinib, Erlotinib] | attenuated | 
